“And” between values parts separate entries of the source, which are not always exact repeats. Equal entries are not always repeated.
Tested on: HepG-2 cells
Test: Whole genome bisulfite sequencing (WGBS), differentially methylated regions
Format: cell-based, human
Conditions: for number of DMRs, whole genome, hyper-methylated / number of DMRs, whole genome, hypo-methylated / number of DMRs, whole genome, total: 20 μM CA vs vehicle
Description: After culturing HepG-2 cells in DMEM medium with HG for 72 hours followed by treating with 20 μM CA for 0, 3, 6, 12, and 24 hours, genomic DNA from 5×10^7 cells were extracted using QIAamp® DNA Mini Kit (QIAGEN, Hilden, Germany). Each sample, 6 μg, was sent to CD Genomics Co., Ltd (New York, USA) for analysis of WGBS. Total RNA was isolated using the Promega SV total RNA isolation system (Madison, WI, USA) with DNase treatment. Each sample, 2 μg, were sent to CD Genomics Co., Ltd (New York, USA) for analysis of RNA sequencing. The same samples, 2 μg, was used for the first-strand cDNA synthesis as recommended by the manufacturer (Invitrogen, Carlsbad, CA). RT-qPCR was performed using SYBR Green as the indicator on ABI 7500 Fast Real-Time PCR System (Applied Biosystems, Foster City, CA). Amplifications of j-actin or GAPDH were used as internal controls. Relative messenger RNA (mRNA) expression was quantified with the comparative cycle threshold (Ct) method using a sutiable primer set and was expressed as 2-ΔΔCt as described previously.
Each sample, 1 μg of genomic DNA was fragmented by sonication to a mean size of approximately 200-400 bp, and subsequently used for WGBS library construction using Acegen Bisulfite-Seq Library Prep Kit (Acegen) following the manufacturer's instructions. The methylated adapter-ligated DNAs were purified using 0.8×Agencourt AMPure™ XP magnetic beads and subjected to bisulfite conversion by ZYMO EZ DNA Methylation-Gold™ Kit (Zymo Research Corporation, CA, USA). The converted DNAs were then amplified using 25 μl KAPA HiFi™ HotStart Uracil+ ReadyMix (2×) and 8-bp index primers with a final concentration of 1 μM each. The constructed WGBS libraries were then analyzed by Agilent 2100 Bioanalyzer and quantified by a Qubit fluorometer with Quant-iT™ dsDNA HS Assay Kit (Invitrogen), and finally sequenced on Illumina® Hiseq X™ Ten sequencer. After the preparation of the library, Qubit 2.0 and Agilent 2100 were used respectively to detect the concentration of the library and the Insert Size, and the effective concentration (>2 nM) of the library was quantitatively determined by Q-PCR to ensure the library quality.
Samples were sequenced using the Illumina® HiSeq sequencing platform. Raw data generated on the sequencing platform contained a small percentage of low-quality data, which was then filtered to get high-quality data. Bsmap software was used to perform alignments of bisulfite-treated reads to a reference genome (GRCh37). Metilene software was used to identify differentially methylated regions (DMRs). DAVID software (website located at david.ncifcrf.gov/) was used to test the statistical enrichment of DMR related genes in the Gene Ontology (GO) and Kyoto Encyclopedia of Genes and Genomes (KEGG) pathways.

CC(CCC[C@@H](C)[C@H]1CC[C@H]2[C@@H]3CC=C4C[C@@H](O)CC[C@]4(C)[C@H]3CC[C@]12C)C(=O)O (stereo partly drawn) [CA, 3β-hydroxy-5-cholestenoic acid]
number of DMRs, whole genome, hyper-methylated (3 hours): 11,818
number of DMRs, whole genome, hypo-methylated (3 hours): 215,747
number of DMRs, whole genome, total (3 hours): 227,565
number of DMRs, whole genome, hyper-methylated (6 hours): 10,537
number of DMRs, whole genome, hypo-methylated (6 hours): 497,685
number of DMRs, whole genome, total (6 hours): 508,222
number of DMRs, whole genome, hyper-methylated (12 hours): 14,658
number of DMRs, whole genome, hypo-methylated (12 hours): 544,916
number of DMRs, whole genome, total (12 hours): 559,574
number of DMRs, whole genome, hyper-methylated (24 hours): 8,808
number of DMRs, whole genome, hypo-methylated (24 hours): 679,051
number of DMRs, whole genome, total (24 hours): 687,859
DMR (Methylation %) ADRA1A promoter region (20 μM CA, 3 h): −30.28%
DMR (Methylation %) ADRA1B promoter region (20 μM CA, 3 h): 0%
DMR (Methylation %) ADRA1 promoter region (20 μM CA, 3 h): −30.28%
DMR (Methylation %) BCL6 promoter region (20 μM CA, 3 h): −20.42%
DMR (Methylation %) CACNA1D promoter region (20 μM CA, 3 h): −55.12%
DMR (Methylation %) CALML3 promoter region (20 μM CA, 3 h): −27.06% and −27.05%
DMR (Methylation %) CALML4 promoter region (20 μM CA, 3 h): −21.08%
DMR (Methylation %) CAMKK2 promoter region (20 μM CA, 3 h): 0%
DMR (Methylation %) COX7B promoter region (20 μM CA, 3 h): −30.9%
DMR (Methylation %) COX8A promoter region (20 μM CA, 3 h): −25.87%
DMR (Methylation %) CPT1C promoter region (20 μM CA, 3 h): −18.8%
DMR (Methylation %) CREB3L4 promoter region (20 μM CA, 3 h): 0%
DMR (Methylation %) CYP1A1 promoter region (20 μM CA, 3 h): −30.07%
DMR (Methylation %) ESR2 promoter region (20 μM CA, 3 h): 0%
DMR (Methylation %) FBP1 promoter region (20 μM CA, 3 h): 0%
DMR (Methylation %) FGF1 promoter region (20 μM CA, 3 h): −54.6%
DMR (Methylation %) FGF8 promoter region (20 μM CA, 3 h): −19.97%
DMR (Methylation %) FGFR2 promoter region (20 μM CA, 3 h): −26.28%
DMR (Methylation %) LDHA promoter region (20 μM CA, 3 h): −29.00%
DMR (Methylation %) LDHAL6A promoter region (20 μM CA, 3 h): 0%
DMR (Methylation %) LDHC promoter region (20 μM CA, 3 h): −20.18%
DMR (Methylation %) LEP promoter region (20 μM CA, 3 h): 0%
DMR (Methylation %) MIR29A promoter region (20 μM CA, 3 h): −15.46%
DMR (Methylation %) MIRLET7B promoter region (20 μM CA, 3 h): 0%
DMR (Methylation %) MTOR promoter region (20 μM CA, 3 h): −20.34%
DMR (Methylation %) NTRK3 promoter region (20 μM CA, 3 h): 0%
DMR (Methylation %) PDHA2 promoter region (20 μM CA, 3 h): 0%
DMR (Methylation %) PDHB promoter region (20 μM CA, 3 h): −21.86%
DMR (Methylation %) PHKG1 promoter region (20 μM CA, 3 h): −15.73%
DMR (Methylation %) PPARG promoter region (20 μM CA, 3 h): 0%
DMR (Methylation %) SDHA promoter region (20 μM CA, 3 h): 0%
DMR (Methylation %) SDHB promoter region (20 μM CA, 3 h): 0%
DMR (Methylation %) SPHK2 promoter region (20 μM CA, 3 h): 0%
DMR (Methylation %) UQCRC1 promoter region (20 μM CA, 3 h): −23.76%
DMR (Methylation %) VDAC2 promoter region (20 μM CA, 3 h): −27.41%
number of DMRs in promoter region, hyper-methylated (20 μM CA, 3 hours): 2,323
number of DMRs in promoter region, hypo-methylated (20 μM CA, 3 hours): 12,431
number of DMRs in promoter region, total (20 μM CA, 3 hours): 14,754
DMR (Methylation %) ADRA1A promoter region (20 μM CA, 6 h): −41.25%
DMR (Methylation %) ADRA1B promoter region (20 μM CA, 6 h): −33.89%
DMR (Methylation %) ADRA1 promoter region (20 μM CA, 6 h): −41.25%
DMR (Methylation %) BCL6 promoter region (20 μM CA, 6 h): −43.30%
DMR (Methylation %) CACNA1D promoter region (20 μM CA, 6 h): −69.06% and −69.10%
DMR (Methylation %) CALML3 promoter region (20 μM CA, 6 h): −47.29%
DMR (Methylation %) CALML4 promoter region (20 μM CA, 6 h): −31.79%
DMR (Methylation %) CAMKK2 promoter region (20 μM CA, 6 h): −37.97%
DMR (Methylation %) COX7B promoter region (20 μM CA, 6 h): −83.31%
DMR (Methylation %) COX8A promoter region (20 μM CA, 6 h): −35.3%
DMR (Methylation %) CPT1A promoter region (20 μM CA, 6 h): −41.69%
DMR (Methylation %) CPT1C promoter region (20 μM CA, 6 h): −34.41%
DMR (Methylation %) CREB3L4 promoter region (20 μM CA, 6 h): −36.38%
DMR (Methylation %) CYP1A1 promoter region (20 μM CA, 6 h): −55.38%
DMR (Methylation %) ESR2 promoter region (20 μM CA, 6 h): −33.80%
DMR (Methylation %) FBP1 promoter region (20 μM CA, 6 h): −39.18%
DMR (Methylation %) FGF1 promoter region (20 μM CA, 6 h): −37.79%
DMR (Methylation %) FGF8 promoter region (20 μM CA, 6 h): −53.29%
DMR (Methylation %) FGFR2 promoter region (20 μM CA, 6 h): −47.13%
DMR (Methylation %) LDHA promoter region (20 μM CA, 6 h): −35.80%
DMR (Methylation %) LDHAL6A promoter region (20 μM CA, 6 h): −38.96%
DMR (Methylation %) LDHC promoter region (20 μM CA, 6 h): −31.45%
DMR (Methylation %) LEP promoter region (20 μM CA, 6 h): −35.18%
DMR (Methylation %) MIR29A promoter region (20 μM CA, 6 h): −32.98%
DMR (Methylation %) MIRLET7B promoter region (20 μM CA, 6 h): −34.85%
DMR (Methylation %) MTOR promoter region (20 μM CA, 6 h): −37.3%
DMR (Methylation %) NTRK3 promoter region (20 μM CA, 6 h): −49.89%
DMR (Methylation %) PDHA2 promoter region (20 μM CA, 6 h): −39.34%
DMR (Methylation %) PDHB promoter region (20 μM CA, 6 h): −42.31%
DMR (Methylation %) PHKG1 promoter region (20 μM CA, 6 h): −41.81%
DMR (Methylation %) PPARG promoter region (20 μM CA, 6 h): −37.32%
DMR (Methylation %) SDHA promoter region (20 μM CA, 6 h): −37.82%
DMR (Methylation %) SDHB promoter region (20 μM CA, 6 h): −39.54%
DMR (Methylation %) SPHK2 promoter region (20 μM CA, 6 h): −60.87%

Reference: patent publication US20260137701A1, “CHOLESTENOIC ACID (CA) AND A SULFATED DERIVATIVE THEREOF, 3[BETA]-SULFATE-5-CHOLESTENOIC ACID (CA3S), AS ENDOGENOUS EPIGENETIC REGULATORS” (priority 2022, published 2026)
